Values quoted from earlier work in patent US20150283242A1, “EFFECTIVE PHARMACEUTICAL CARRIER FOR POORLY BIOAVAILABLE DRUGS” (Hovid Berhad, priority 2007, published 2015).

**Q.** For Cc1ccc(C)c(OCCCC(C)(C)C(=O)O)c1 [gemfibrozil], which “log P (partition coefficient)” value is on record?
**A.** 4.77

**Q.** Which “log P (partition coefficient)” value does the source give for COc1ccc2c(c1)c(CC(=O)O)c(C)n2C(=O)c1ccc(Cl)cc1 [indomethacin] here?
**A.** 4.27

**Q.** For CC[C@H](C)C(=O)O[C@H]1C[C@H](O)C=C2C=C[C@H](C)[C@H](CC[C@@H](O)C[C@@H](O)CC(=O)O)[C@H]21 [pravastatin], which “log P (partition coefficient)” value is on record?
**A.** 2.42

**Q.** Which “log P (partition coefficient)” value does the source give for COC1=C(OC)C(=O)C(C/C=C(\C)CC/C=C(\C)CC/C=C(\C)CC/C=C(\C)CC/C=C(\C)CC/C=C(\C)CC/C=C(\C)CC/C=C(\C)CC/C=C(\C)CCC=C(C)C)=C(C)C1=O [ubiquonone] here?
**A.** more than 10
